≈ marks a conversion by molar mass, not a printed value.
Key:
[1] = molecular target: T1, human soluble guanylate cyclase alpha 1 and beta 1 subunits (sGC) (Homo sapiens, UniProt Q02108+Q02153); experiment: sGC cellular activator assay (cGMP, HTRF); assay type: cell-based; conditions: CHO cells stably expressing human sGC alpha 1/beta 1, preincubated with 40 microM ODQ; cGMP readout; assay run with and without 50% human serum, Table 2 does not say which
T1 construct: expressed in transfected cells; host or cells: Chinese hamster ovary (CHO) cells, stably transfected
T1 sequence (Q02108 1-690): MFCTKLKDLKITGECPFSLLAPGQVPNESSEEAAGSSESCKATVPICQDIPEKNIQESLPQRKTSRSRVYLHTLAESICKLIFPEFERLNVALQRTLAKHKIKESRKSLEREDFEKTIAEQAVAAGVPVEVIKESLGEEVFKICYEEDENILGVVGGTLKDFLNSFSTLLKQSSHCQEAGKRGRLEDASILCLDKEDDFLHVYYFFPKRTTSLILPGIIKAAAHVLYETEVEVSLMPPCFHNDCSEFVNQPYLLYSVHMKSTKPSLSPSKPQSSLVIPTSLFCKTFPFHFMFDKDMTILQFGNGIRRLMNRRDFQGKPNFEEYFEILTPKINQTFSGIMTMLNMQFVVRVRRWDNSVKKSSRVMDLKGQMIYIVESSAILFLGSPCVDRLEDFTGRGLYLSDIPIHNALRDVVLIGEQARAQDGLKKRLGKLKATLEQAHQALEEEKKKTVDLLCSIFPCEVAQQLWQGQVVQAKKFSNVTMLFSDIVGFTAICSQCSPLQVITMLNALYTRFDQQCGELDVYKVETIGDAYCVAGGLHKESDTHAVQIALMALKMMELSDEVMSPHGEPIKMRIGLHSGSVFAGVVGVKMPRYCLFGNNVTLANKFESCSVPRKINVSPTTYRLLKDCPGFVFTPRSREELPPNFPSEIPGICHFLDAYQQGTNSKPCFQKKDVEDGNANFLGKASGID
T1 sequence (Q02153 1-619): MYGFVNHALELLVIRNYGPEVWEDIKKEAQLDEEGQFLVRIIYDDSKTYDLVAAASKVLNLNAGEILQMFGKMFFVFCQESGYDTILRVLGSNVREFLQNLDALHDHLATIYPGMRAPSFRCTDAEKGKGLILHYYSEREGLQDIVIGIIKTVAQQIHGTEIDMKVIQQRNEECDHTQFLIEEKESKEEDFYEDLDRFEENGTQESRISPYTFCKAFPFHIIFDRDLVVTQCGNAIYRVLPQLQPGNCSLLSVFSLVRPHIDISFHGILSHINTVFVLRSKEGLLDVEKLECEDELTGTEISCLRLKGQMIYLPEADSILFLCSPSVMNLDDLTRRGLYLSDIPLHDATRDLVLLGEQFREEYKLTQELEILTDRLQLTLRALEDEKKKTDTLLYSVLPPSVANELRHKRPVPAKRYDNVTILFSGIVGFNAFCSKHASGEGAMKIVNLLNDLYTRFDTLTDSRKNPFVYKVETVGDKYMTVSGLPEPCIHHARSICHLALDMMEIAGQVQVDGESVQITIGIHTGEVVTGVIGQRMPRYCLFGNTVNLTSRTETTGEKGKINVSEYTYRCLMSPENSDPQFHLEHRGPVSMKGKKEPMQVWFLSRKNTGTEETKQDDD
Description: The sGC cellular activator assay is performed in the presence and absence of 50% human serum (HS) using Chinese hamster ovary cells that have been stably transfected to express the human soluble guanylate cyclase alpha 1 and beta 1 subunits (sGC). Cells are preincubated with 40 microM 1H-[1,2,4]oxadiazolo[4,3-a]quinoxalin-1-one (ODQ), an sGC inhibitor, for one h in buffer containing 0.1% bovine serum albumin and 3-isobutyl-1-methylxanthine (IBMX). Concentration response curves are prepared for test compounds in DMSO. An intermediate dilution of the compounds is performed in either buffer containing IBMX or type AB HS containing IBMX. Diluted compounds are added to cells and they are incubated at room temperature for thirty min. cGMP is measured using a CisBio homogeneous time resolved fluorescence kit and the EC50 is calculated for each compound.
Representative compounds of the present invention were tested for activity the above assay. Preferred compounds have an EC50 of <1,000 nM in the above assay and more preferred compounds have an EC50<200 nM.

[2] = human liver microsome (HLM) metabolic stability assay; assay type: in vitro ADME; conditions: human liver microsomes; % hepatic blood flow calculated from t1/2
Description: The 5 time point, high-throughput human liver microsome (HLM) metabolic stability assay is designed to determine in vitro compound metabolism. Compounds are incubated with HLMs at a concentration of 1 uM, at 37° C., for a total of 60 min. The percent of compound remaining at 5, 15, 30, and 60 min is used to calculate the t½ (min), CLint (mL/min/kg), CLh (mL/min/kg), and % Qh. The assay is based on a 96-well format and can accommodate up to 92 compounds per plate (n=1).
Using the 96-well multi-channel head, the Biomek FX, equipped with a Peltier heating block/shaker, is programmed to accomplish the following steps: • 1. Pipette 175 uL of 1.15 mg/mL microsomes into each of the 96 conical inserts (Analytical Sales and Products, catalog number 96PL05) that fit into the plate of the Peltier heating block/shaker (the incubation plate) • 2. Add 5 uL of compounds from the assay plate to the microsomes and shake the mixture at 600 rpm at 42.1° C. for 10 min (a setting of 42.1° C. on the Peltier is required for the samples to incubate at 37° C.) • 3. After 10 min, prompt the user to add the NADPH plate to the deck and add 20 uL from the NADPH plate to the incubation plate to start the reaction • 4. Add 215 uL of 100%, cold acetonitrile containing an internal standard(s) to a 0 minute, 5 minute, 15 minute, 30 minute, and 60 minute “quench” plate • 5. At 0 min, 5 min, 15 min, 30 min, and 60 min into the incubation, aspirate 12 uL from the incubation mixture and add it to the quench solution to stop the reaction • 6. Add 185 uL HPLC grade water to each well of the 0, 5, 15, 30 and 60 minute quench plates to dilute compounds to the appropriate concentration for the mass spectrometer
After all time points are collected, the quench plates are sealed with 96-well pierceable plate mats or heat sealing foil and centrifuged at 3000 rpm for 15 min to pellet the microsomes.
The plates are analyzed using LC/MS/MS with electron spray ionization (ESI) and the previously determined MRM transitions. The LC method includes the following parameters:
Using an Excel template in Activitybase, the peak areas corresponding to 5, 15, 30 and 60 min are compared to the peak area at 0 min to calculate the percent of remaining compound using the following equation: Percent compound remaining=(AUC at Time t min/AUC at Time 0 min)×100 where t=0, 5, 15, 30 or 60 min.
Time (min) is plotted against the natural logarithm (Ln) of the percent compound remaining to determine the slope. The slope is used to calculate t½ (min) using the equation, t½=0.693/slope.
Preferred compounds have % Qh values of less than 24.

[3] = Assessment of solubility (McIlvaine buffers, 24 h shake, UPLC-UV); assay type: physicochemical; conditions: kinetic from dmso stock
Description: Solubility is measured by the following method.
100 uL, 10 mM DMSO stock solution of each compound is prepared in a 96 well plate format. The experiment is done in single determination at 3 pH values (2.2, 4.5 and 6.8). For each pH and one reference, 40 uL of each compound is needed.
McIlvaine pH 2.2: To 2.076 g citric acid monohydrate and 0.043 g Na2HPO4×2H2O add 100 ml deionized water
McIlvaine pH 4.5: To 1.166 g citric acid monohydrate and 1.585 g Na2HPO4×2H2O add 100 ml deionized water
McIlvaine pH 6.8: To 0.476 g citric acid monohydrate and 2.753 g Na2HPO4×2H2O add 100 ml deionized water
With a suitable liquid handling device (Multipette® or a liquid handler) 390 uL of each buffer solution and 10 uL of compound is added to each well of a 96 deep well plate. The plates are covered firmly and shaken for 24 h on an over head shaker (at 54 RPM) at room temperature. The DMSO content in the final buffer is 2.5% v/v.
After 24 h the plates are centrifuged to remove droplets on the lid before opening (for ˜5 min at 2500 RPM).
The filtration is done under vacuum with Millipore 96 well filter plate. Filtrate is collected in a deep well plate and transferred to a suitable plate for UPLC analysis.
The reference plate is prepared by adding 10 uL of compound to 390 uL of 50:50 acetonitrile/water in a 96 deep well plate and transferred to a suitable plate for UPLC analysis. Wells are checked visually for precipitation, any presence noted under comments in reported results.
The samples are measured with UPLC-UV using the chromatographic method described below.
Waters Empower®2 software is used for generating Sample Sets (according to the plate layout), Sample Set Methods and Instrument Methods.
One Sample Set comprises the methods for three 96 well plates (one reference plate and two sample plates, and includes one Sample Set Method and one Instrument Method).
3. Data Processing and Analysis
The UV chromatograms collected at 254 nm are integrated and processed.
It is assumed that the compound is completely dissolved in the reference solution (50:50 acetonitrile/water)

SMILES	EC50 [1] [nM]	HLM (% Qh) [2] [% Qh]	solubility at 24 h ([3]; pH 2.2, aqueous buffer) [µg/mL]	solubility at 24 h ([3]; pH 4.5, aqueous buffer) [µg/mL]	solubility at 24 h ([3]; pH 6.8, aqueous buffer) [µg/mL]
CCOc1c(C(=O)O)cnn1-c1cccc(-c2cccc(C)c2OCc2ccc3c(c2)CN(C2CCOCC2)C3)n1 [Compound 216]	110	<24			
COc1c(C(=O)O)cnn1-c1cccc(-c2cccc(C)c2OCc2cc(C)c3c(c2)CN(C2CCOCC2)C3)n1 [Compound 255]	9.5	<24			
COc1c(C(=O)O)cnn1-c1cccc(-c2cccc(C)c2OCc2ccc3c(c2)CCN(C[C@H]2CCOC2)C3)n1 [Compound 192]	10	<24			
CCOc1c(C(=O)O)cnn1-c1cccc(-c2cccc(C)c2OCc2ccc3c(c2)CCNC3)n1 [Compound 60]		<24	117 (≈ 241 µM)	96 (≈ 198 µM)	100 (≈ 206 µM)
Cc1cccc(-c2cccc(-n3ncc(C(=O)O)c3OC(C)C)n2)c1OCc1ccc2c(c1C)CCN([C@@H]1CCCOC1)C2 [Compound 116]	28	<24			
COc1c(C(=O)O)cnn1-c1cccc(-c2cccc(C)c2OCc2ccc3c(c2C)CN(C2COC2)C3)n1 [Compound 257]	14	<24			
CCOc1c(C(=O)O)cnn1-c1cccc(-c2cccc(C)c2OCc2ccc3c(c2C)CCN(C(CO)CO)C3)n1 [Compound 156]	720	<24			
COc1c(C(=O)O)cnn1-c1cccc(-c2cccc(C)c2OCc2cc(C)c3c(c2C)CN(S(=O)(=O)c2ccc(C)cc2)C3)n1 [Compound 138]	54	68			
COc1c(C(=O)O)cnn1-c1cccc(-c2cccc(C)c2OCc2ccc3c(c2)CN(C2CCOCC2)C3)n1 [Compound 59]	31	<24			
COc1c(C(=O)O)cnn1-c1cccc(-c2cccc(C)c2OCc2cc(C)c3c(c2)CN(C2COC2)C3)n1 [Compound 258]	15	<24			
COc1c(C(=O)O)cnn1-c1cccc(-c2cccc(C)c2OCc2cc(C)c3c(c2C)CN(CC2COCCO2)C3)n1 (centres unmarked) [Compound 246]	6.5	<24			
COc1c(C(=O)O)cnn1-c1cccc(-c2cccc(C)c2OCc2ccc3c(c2C)CN(C2CCOCC2)C3)n1 [Compound 256]	14	<24			
